# Columns and labels:
# N2a cells = assay: Measurement of exosome release from N2a cells after siRNA, C6-ceramide or bacterial SMase treatment (Western blot); assay type: cell-based, murine; details: for exosome release / secretion after siRNA knockdown: Stealth RNAi siRNA, Western blot of exosome markers; for ratio of amount of Alix compared with a control: siRNA knockdown, exosome fraction
# Procedure: (§1) As previously described (Thery C et al., Curr Protoc Cell Biol Chapter: Unit 3.22 (2006)), exosomes were prepared from culture supernatants of N2a and murine primary cultured cortical nerve cells. The culture medium was replaced with a serum-free medium on the day before the preparation of exosomes. The cell culture supernatants were collected after 24 hours and sequentially centrifuged at 3,000×g for 10 minutes, at 4,000×g for 10 minutes, and at 10,000×g for 30 minutes to remove cells, dead cells, and cell fragments, and then spun down again at 100,000×g for one hour to obtain exosomes as pellets.
# (§2) Treatment with imipramine (10 μM), GW4869 (10 μM), D609 (50 μM) C6-ceramide (50 μM) or bacterial SMase (100 μU/ml) was performed for 24 hours in a serum-free medium.
# For RNA-mediated interference (RNAi) experiments, the inventors used Stealth RNAi™ siRNA (Invitrogen) with the following sequences:
# Stealth™ Control RNA was obtained from Invitrogen SiRNA was delivered according to the manufacturer's protocol by using a Lipofectamine™ transfection reagent (Invitrogen).
# (§3) Exosome pellets purified from cultures of 5×10^6 cells were solubilized with Laemmli buffer (Laemmli U K, Nature (1970) 227: 680-685) and subjected to SDS-PAGE and Western blotting. Blots were probed with a primary antibody and then probed with an HRP-conjugated secondary antibody. Bands were detected and analyzed using a combination of an ECL Plus kit (GE Healthcare) and an LAS4000 (Fujifilm Corporation).
# Aβ = assay: Thioflavin T test of Aβ amyloid fibril formation with exosomes; assay type: biochemical, human; details: exosomes from inhibitor- or siRNA-treated cells mixed with 25 μM Aβ42, five hours at 37° C.
# Procedure: A seed-free Aβ solution was prepared essentially according to the previous report (Naiki H et al., Methods Enzymol (1999) 309: 305-318). Briefly stated, synthetic Aβ40 and Aβ42 were dissolved in a 0.02% ammonium solution at 500 μM and 300 μM, respectively. In order to remove undissolved Aβ aggregates that can act as pre-existing seeds, the prepared solution was centrifuged at 540,000×g for three hours at 4° C. The obtained supernatant was collected and stored at −80° C. until use.
# Seed free Aβ (25 μM) was incubated in 100 μl of TBS comprising 0 μl, 1 μl, or 10 μl of exosome solution at 37° C. 1 μl of exosome solution was collected from culture supernatants of 1×10^6 cells. As described in the prior art document (Naiki H et al., Methods Enzymol (1999)309:305-318), fluorescence intensity of ThT in the mixture was measured using an Appliskan spectrofluorophotometer (Thermo Fisher Scientific). The optimal fluorescence intensities of amyloid fibrils were measured at an excitation wavelength of 446 nm and fluorescent wavelength of 490 nm by using a reaction mixture comprising 5 μM ThT and 50 mM glycine/NaOH with pH of 8.5.
# N2a-APP cells = assay: Western blot of 100,000×g pellets from media of N2a-APP cells transfected with siRNA; assay type: cell-based, murine; details: for levels of released exosomes, estimated by the amounts of Alix and Tsg101: siRNA knockdown
# Procedure: as §3
# (§4) N2a cells were cultured on 24-well plate inserts (0.5 μm pore, Costar) at 5×10^5 cells/cm^2 and then transfected with the APP770 plasmid simultaneously with siRNA for nSMase2 or SMS2 by using a Lipofectamine-2000. After 24 hours from the transfection, inserts were placed onto wells containing BV-2 cells. After an additional 24 hours of incubation, Aβ levels in the medium were measured by ELISA. Intracellular Aβ levels in BV-2 cells were also measured using ELISA after solubilization in guanidine HCl buffer as described above.
# N2a cells and BV-2 cells = assay: Transwell experiment: N2a-APP cells with BV-2 cells, Aβ levels by ELISA; assay type: cell-based, murine; details: for extracellular Aβ levels: no BV-2 cells on the lower wells, N2a-APP cells treated with siRNA
# Procedure: Aβ40 and Aβ42 levels were measured by using a sandwich enzyme-linked immunosorbent assay (ELISA) kit from Wako. Aggregated Aβs both in medium and cells were solubilized with 4 M guanidine-HCl buffer for 2 hours at room temperature and then were subjected to ELISA. All samples were measured in duplicates.
# as §4
# [1] = test system: N2a cells and primary cultured nerve cells; assay: Measurement of exosome release after drug treatment (Western blot of Alix, Tsg101, GM1 in 100,000×g pellets); assay type: cell-based, murine; details: 24 hours in serum-free medium; imipramine 10 μM, GW4869 10 μM, D609 50 μM
# Procedure: as §1, §2, §3
# [2] = test system: BV-2 cells or primary cultured microglia; assay: Aβ42 uptake into microglia (ELISA); assay type: cell-based, murine
# [3] = test system: BV-2 cells or primary cultured microglia; assay: Fluorescence staining and internalization assay of PKH26-labeled exosomes; assay type: cell-based, murine
# [4] = in the presence of BV-2 cells in the lower wells, 24 hours
compound,measurement,setting,value
"nSMase1 siRNA: Stealth RNAi siRNA (Invitrogen) for nSMase1, sense 5′-AAUAGAACCACAUCUGCAUUCUUGG-3′ (antisense CCAAGAAUGCAGAUGUGGUUCUAUU; Commercial Stealth RNAi siRNA, modifications not given here)",exosome release / secretion after siRNA knockdown,N2a cells,did not change
"SMS2 siRNA: Stealth RNAi siRNA (Invitrogen) for SMS2, sense 5′-AUACAUAGUUAUACAGCGAUACAGG-3′ (antisense CCUGUAUCGCUGUAUAACUAUGUAU; commercial Stealth RNAi siRNA, chemistry not given here)","Aβ fibrillogenesis (ThT fluorescence) by exosomes purified from treated cultures, compared with controls",Aβ,increased
same,"Aβ in 100,000×g pellets",N2a-APP cells; Western blotting,detected
same,"levels of released exosomes, estimated by the amounts of Alix and Tsg101",N2a-APP cells,obviously modulated
same,Aβ levels in the BV-2 cells,N2a cells and BV-2 cells; compared with treatment with control RNA,significantly increased
same,level of Aβ40 in the culture media,N2a cells and BV-2 cells; [4],significantly decreased
same,level of Aβ42 in the culture media,N2a cells and BV-2 cells; [4],significantly decreased
same,extracellular Aβ levels,N2a cells and BV-2 cells,unchanged
same,exosome release / secretion after siRNA knockdown,N2a cells,significant increases
same,ratio of amount of Alix compared with a control,N2a cells,424.75±45.96%
O=C(/C=C/c1ccc(/C=C/C(=O)Nc2ccc(C3=NCCN3)cc2)cc1)Nc1ccc(C2=NCCN2)cc1 [GW4869],"Aβ fibrillogenesis (ThT fluorescence) by exosomes purified from treated cultures, compared with controls",Aβ,significantly reduced
same,"levels of released exosomes (exosomal markers Alix, Tsg101, GM1 in 100,000×g pellets)",[1],significantly decreased
"aSMase siRNA: Stealth RNAi siRNA (Invitrogen) for aSMase, sense 5′-AUUGGUUUCCCUUUAUGAAGGGAGG-3′ (antisense CCUCCCUUCAUAAAGGGAAACCAAU; Commercial Stealth RNAi siRNA, modifications not given here)",exosome release / secretion after siRNA knockdown,N2a cells,did not change
"nSMase2 siRNA: Stealth RNAi siRNA (Invitrogen) for nSMase2, sense 5′-AAUCGAUGUAGAUCUUGAUCUGAGG-3′ (antisense CCUCAGAUCAAGAUCUACAUCGAUU; commercial Stealth RNAi siRNA, chemistry not given here)","Aβ fibrillogenesis (ThT fluorescence) by exosomes purified from treated cultures, compared with controls",Aβ,significantly reduced
same,"levels of released exosomes, estimated by the amounts of Alix and Tsg101",N2a-APP cells,obviously modulated
same,extracellular Aβ levels,N2a cells and BV-2 cells,unchanged
same,exosome release / secretion after siRNA knockdown,N2a cells,reduced
S=C([S-])OC1CC2CC1C1CCCC21.[K+] (stereo not shown) [D609],"Aβ fibrillogenesis (ThT fluorescence) by exosomes purified from treated cultures, compared with controls",Aβ,increased
same,"levels of released exosomes (exosomal markers Alix, Tsg101, GM1 in 100,000×g pellets)",[1],significant enhancement
CN(C)CCCN1c2ccccc2CCc2ccccc21 [imipramine],"levels of released exosomes (exosomal markers Alix, Tsg101, GM1 in 100,000×g pellets)",[1],did not change
"AV: annexin V, specifically recognizes phosphatidylserine (PS)",Aβ uptake into microglia,[2],significantly suppressed
same,uptake of exosomes into BV-2 cells or primary cultured microglia,[3],significantly suppressed
"CCCCCCCCCCCCC/C=C/[C@@H](O)[C@H](CO)NC(=O)CCCCC [C6-ceramide, N-hexanoyl-D-erythro-sphingosine]",release levels of exosomes,"N2a cells; C6-ceramide 50 μM or bacterial SMase 100 μU/ml, 24 hours",significantly increased
"SMS1 siRNA: Stealth RNAi siRNA (Invitrogen) for SMS1, sense 5′-AUACAUUGUAAUACACCGAUACAGG-3′ (antisense CCUGUAUCGGUGUAUUACAAUGUAU; Commercial Stealth RNAi siRNA, modifications not given here)",exosome release / secretion after siRNA knockdown,N2a cells,significant increases
same,ratio of amount of Alix compared with a control,N2a cells,186.02±9.77%
